{"source": "paper PMC11524583", "about": "“Neurons enhance blood–brain barrier function via upregulating claudin-5 and VE-cadherin expression due to glial cell line-derived neurotrophic factor secretion” (eLife, 2024)", "key": {"VE-cadherin": {"test_system": "VE-cadherin", "experiment": "Western blot of VE-cadherin expression in hCMEC/D3 cells", "type": "cell-based, Homo sapiens", "conditions": "for VE-cadherin/β-actin Relative Expression, Mean / VE-cadherin/β-actin Relative Expression: Figure 2G; for VE-cadherin/β-actin Relative Expression, Mean: Con = 1.000; for VE-cadherin/β-actin Relative Expression: relative to Con, single replicates", "experimental": "(§1) Whole-cell and tissue lysates, nucleoprotein, and cytoplasmic protein were prepared using RIPA Lysis Buffer (Beyotime, Shanghai, China) as the described method ([Wu et al., 2021]). Proteins were separated through sodium dodecyl sulfate–polyacrylamide gel electrophoresis and transferred onto nitrocellulose or polyvinylidene difluoride membranes. The membranes were blocked with 5% skim milk and incubated with corresponding primary antibodies at 4°C overnight. After being washed with Tris-buffered saline Tween buffer, the membranes were incubated with secondary antibodies (Cell Signaling Technology, MA, USA) at 1:3000 dilution: Anti-mouse IgG, HRP-linked Antibody (#7076), Anti-rabbit IgG, HRP-linked Antibody (#7074). Protein levels were visualized using a highly sensitive ECL western blotting substrate and a gel imaging system (Tanon Science & Technology, Shanghai, China).\n(§2) CM of U251 cells (U-CM), SH-SY5Y cells (S-CM), or co-culture of U251 and SH-SY5Y cells (US-CM) was prepared. U251 cells were seeded at the top of the insert membrane and suspended on 6-well plates seeded with differentiated SH-SY5Y cells to co-culture U251 cells with SH-SY5Y cells. The medium was collected every 24 hr. The CMs were subsequently used for hCMEC/D3 cell culture after filtrating with 0.2 μm filters for 144 hr. The levels of GDNF, bFGF, IGF-1, and TGF-β in CMs were measured using corresponding ELISA kits according to the manufacturers’ instructions.\n(§3) Exogenous and endogenous GDNF in the medium was neutralized with anti-GDNF antibody (#AF-212-NA, R&D system, Minneapolis, MN, USA). 0.25, 0.5, and 1.0 μg/ml anti-GDNF antibody was added into the US-CM or medium containing 200 pg/ml GDNF, and then the medium was preincubated at 4°C for 1 hr. The hCMEC/D3 cells were incubated with 200 pg/ml GDNF or US-CM containing anti-GDNF antibody or not for 6 days, and then cell lysate was collected for western blot. The medium was replaced every 24 hr.\n(§4) Here, hCMEC/D3 cells were plated in the plates or culture dishes at 6 × 10^4 cells/cm^2 and transfected with 10 nM of negative control or human FOXO1, ETS1, and CDH5 siRNA (Tsingke Biotechnology, Beijing, China) for 12 hr using Lipofectamine 3000 (Invitrogen, Carlsbad, CA, USA) reagent according to the manufacturer’s instructions. Cells were then incubated with a medium containing GDNF for 72 hr."}, "claudin-5": {"test_system": "claudin-5", "experiment": "Western blot of claudin-5 expression in hCMEC/D3 cells", "type": "cell-based, Homo sapiens", "conditions": "for Claudin-5/β-actin Relative Expression, Mean / Claudin-5/β-actin Relative Expression: Figure 2G; for Claudin-5/β-actin Relative Expression, Mean: Con = 1.000; for Claudin-5/β-actin Relative Expression: relative to Con, single replicates", "experimental": "as §1, §2, §3, §4\nThe plasmids encoding FOXO1 (EX-Z7404-M02) were constructed by GeneCopoeia (Rockville, MD, USA). The hCMEC/D3 cells were plated in plates or dishes at 6 × 10^4 cells/cm^2. They were subsequently transfected with 1 µg of negative control or plasmids encoding FOXO1 6 hr using Lipofectamine 3000 reagent according to the manufacturer’s instructions. Transfected cells were then incubated with the medium containing GDNF for 72 hr."}, "[1]": {"test_system": "hCMEC/D3 mono-culture BBB model", "experiment": "TEER of hCMEC/D3 mono-culture BBB model", "type": "cell-based, Homo sapiens", "conditions": "hCMEC/D3 mono-culture, 200 pg/ml GDNF, day 6; 3 μM SPP-86 or 5 μM PP2"}, "[2]": {"test_system": "hCMEC/D3 mono-culture BBB model", "experiment": "In vitro BBB permeability study (Papp), hCMEC/D3 mono-culture BBB model"}, "[3]": {"test_system": "triple co-culture BBB model (hCMEC/D3, U251 and SH-SY5Y cells)", "experiment": "TEER of triple co-culture BBB model", "type": "cell-based, Homo sapiens", "conditions": "for TEER: Triple+PP2, single replicates, Figure 2S", "experimental": "The establishment process of the triple co-culture model is illustrated in Figure 9. SH-SY5Y cells were seeded at a density of 4.5 × 10^4 cells/cm^2 in plates and differentiated with 10 μM retinoic acid (Sigma-Aldrich, St. Louis, MO, USA) for 72 hr. The differentiated SH-SY5Y cells were cultured in the fresh DMEM/F12 medium containing 10% FBS. U251 cells were seeded at 2 × 10^4 cells/cm^2 on the bottom of Transwell inserts (PET, 0.4 µm pore size, SPL Life Sciences, Pocheon, Korea) coated with rat-tail collagen (Corning Inc, Corning, NY, USA). Next, the inserts were suspended in plate wells containing the culture medium after 5 hr of incubation. After 24 hr of incubation, hCMEC/D3 cells were seeded on the apical side of the inserts at 3 × 10^4 cells/cm^2 and cultured for another 48 hr. Then, the inserts seeded with U251 and hCMEC/D3 cells were suspended in plates seeded with differentiated SH-SY5Y cells and co-cultured for another 6 days. The culture medium was replaced every 24 hr. TEER was periodically measured using a Millicell-ERS (MERS00002) instrument (Millipore, Billerica MA, USA) to monitor cell confluence and development of TJs."}, "[4]": {"test_system": "triple co-culture BBB model (hCMEC/D3, U251 and SH-SY5Y cells)", "experiment": "In vitro BBB permeability study (Papp), triple co-culture BBB model"}, "[5]": {"conditions": "unbound fraction in brain; ref Summerfield et al., 2007; cited from earlier work"}, "[6]": {"conditions": "in situ brain perfusion in rodents, published permeability multiplied by VSA 150 cm^2/g, cited from earlier work"}, "in vitro [7]": {"experiment": "in vitro", "conditions": "human"}, "in vitro [8]": {"experiment": "in vitro", "conditions": "human, Papp, Triple, apical to basolateral, 30 min, 37°C, day 6; mean ± SEM, four biological replicates"}, "[9]": {"test_system": "hCMEC/D3 mono-culture BBB model", "conditions": "human"}, "[10]": {"conditions": "hCMEC/D3 cells, 200 pg/ml GDNF, 3 μM SPP-86, 5 μM PP2, 3 μM LY294002, 2 μM U0126, 5 μM SP600125, 2 μM SB203580, anti-GDNF antibody 0.25, 0.5, 1.0 μg/ml"}, "[11]": {"conditions": "hCMEC/D3 cells, US-CM, 3 μM SPP-86, 5 μM PP2, 3 μM LY294002, 2 μM U0126, anti-GDNF antibody 0.25, 0.5, 1.0 μg/ml"}}, "note": "Where “and” joins values, the source holds several entries; their conditions need not be identical. Identical values can stand only once. Like-named read-outs stand apart in the source and are kept apart here. Marks after values point to notes of the source that are not given here."}
{"compound": "TGF-β", "values": [{"measurement": "VE-cadherin/β-actin Relative Expression, Mean", "setting": "VE-cadherin; 0.5 ng", "value": 1.041}, {"measurement": "VE-cadherin/β-actin Relative Expression", "setting": "VE-cadherin; 0.5 ng", "value": "1.060 and 0.953 and 1.005 and 1.147"}, {"measurement": "VE-cadherin/β-actin Relative Expression, Mean", "setting": "VE-cadherin; 2 ng", "value": 1.010}, {"measurement": "VE-cadherin/β-actin Relative Expression", "setting": "VE-cadherin; 2 ng", "value": "0.849 and 1.087 and 1.125 and 0.979"}, {"measurement": "VE-cadherin/β-actin Relative Expression, Mean", "setting": "VE-cadherin; 5 ng", "value": 0.834}, {"measurement": "VE-cadherin/β-actin Relative Expression", "setting": "VE-cadherin; 5 ng", "value": "0.847 and 0.832 and 0.952 and 0.705"}, {"measurement": "Claudin-5/β-actin Relative Expression, Mean", "setting": "claudin-5; 0.5 ng", "value": 0.967}, {"measurement": "Claudin-5/β-actin Relative Expression", "setting": "claudin-5; 0.5 ng", "value": "0.910 and 1.017 and 1.003 and 0.937"}, {"measurement": "Claudin-5/β-actin Relative Expression, Mean", "setting": "claudin-5; 2 ng", "value": 0.982}, {"measurement": "Claudin-5/β-actin Relative Expression", "setting": "claudin-5; 2 ng", "value": "0.870 and 1.019 and 1.090 and 0.947"}, {"measurement": "Claudin-5/β-actin Relative Expression, Mean", "setting": "claudin-5; 5 ng", "value": 0.716}, {"measurement": "Claudin-5/β-actin Relative Expression", "setting": "claudin-5; 5 ng", "value": "0.653 and 0.618 and 0.959 and 0.634"}, {"measurement": "claudin-5 expression", "setting": "claudin-5; hCMEC/D3 cells, high level (5 ng/ml) of TGF-β", "value": "slightly downregulated"}]}
{"compound": "CC(C)(C)n1nc(-c2ccc(Cl)cc2)c2c(N)ncnc21", "note": "[PP2]", "values": [{"measurement": "GDNF-increased TEER values, effect of inhibitor", "setting": "[1]", "value": "almost abolished"}, {"measurement": "GDNF-decreased permeability of fluorescein and FITC-Dex, effect of inhibitor", "setting": "[2]; hCMEC/D3 mono-culture, 200 pg/ml GDNF, 3 μM SPP-86 or 5 μM PP2", "value": "almost abolished"}, {"measurement": "TEER", "setting": "[3]; Day3", "value": "61.05 Ω·cm2 and 61.38 Ω·cm2 and 59.07 Ω·cm2 and 63.36 Ω·cm2"}, {"measurement": "TEER", "setting": "[3]; Day4", "value": "66.66 Ω·cm2 and 65.01 Ω·cm2 and 64.68 Ω·cm2 and 62.04 Ω·cm2"}, {"measurement": "TEER", "setting": "[3]; Day5", "value": "81.51 Ω·cm2 and 78.21 Ω·cm2 and 77.88 Ω·cm2 and 76.89 Ω·cm2"}, {"measurement": "TEER", "setting": "[3]; Day6", "value": "78.21 Ω·cm2 and 80.19 Ω·cm2 and 76.23 Ω·cm2 and 79.2 Ω·cm2"}, {"measurement": "increased TEER values in the triple co-culture BBB model, effect of inhibitor", "setting": "[3]; day 6, 3 μM SPP-86 or 5 μM PP2", "value": "completely reversed"}, {"measurement": "GDNF-induced VE-cadherin expression", "setting": "VE-cadherin; [10]", "value": "markedly attenuated"}, {"measurement": "US-CM-induced VE-cadherin expression", "setting": "VE-cadherin; [11]", "value": "markedly attenuated"}, {"measurement": "decreased permeability of fluorescein and FITC-Dex in the triple co-culture BBB model, effect of inhibitor", "setting": "[4]; 3 μM SPP-86 or 5 μM PP2", "value": "completely reversed"}, {"measurement": "GDNF-induced claudin-5 expression", "setting": "claudin-5; [10]", "value": "markedly attenuated"}, {"measurement": "US-CM-induced claudin-5 expression", "setting": "claudin-5; [11]", "value": "markedly attenuated"}]}
{"compound": "Cc1cc2c(s1)Nc1ccccc1N=C2N1CCN(C)CC1", "note": "[Olanzapine]", "values": [{"measurement": "fu, brain", "setting": "[5]", "value": "0.034^†"}, {"measurement": "PSObs", "setting": "[6]; ref Summerfield et al., 2007", "value": "2279.70^† μl/min/g"}]}
{"compound": "Cc1nc2n(c(=O)c1CCN1CCC(c3noc4cc(F)ccc34)CC1)CCCC2", "note": "[Risperidone]", "values": [{"measurement": "PSObs", "setting": "[6]; ref Summerfield et al., 2007", "value": "849.60^† μl/min/g"}]}
{"compound": "COc1cc2nc(N3CCN(C(=O)c4ccco4)CC3)nc(N)c2cc1OC", "note": "[Prazosin]", "values": [{"measurement": "Papp A→B at 30 min", "setting": "in vitro [7]; Papp (individual replicate)", "value": 4.56, "unit": "×10⁻⁶ cm/s"}, {"measurement": "PSObs", "setting": "[6]; ref Di Marco et al., 2019", "value": "169.20^¶ ¶ μl/min/g"}]}
{"compound": "NCC1(CC(=O)O)CCCCC1", "note": "[Gabapentin]", "values": [{"measurement": "fu, brain", "setting": "[5]", "value": "0.782^†"}, {"measurement": "Papp A→B", "setting": "in vitro [8]", "value": "8.78 ± 0.23", "unit": "×10⁻⁶ cm/s"}, {"measurement": "PS", "setting": "[2]; Mono-culture BBB Model, PS worked out from mean Papp", "value": 192.77, "unit": "µL/min/g"}, {"measurement": "PSPre, Mono", "setting": "[9]", "value": 192.77, "unit": "µL/min/g"}, {"measurement": "Papp A→B", "setting": "in vitro [7]; Papp Mean, Mono-culture BBB Model, mean of 4 replicates", "value": 16.7, "unit": "×10⁻⁶ cm/s"}, {"measurement": "PSObs", "setting": "[6]; ref Summerfield et al., 2007", "value": "162.90^† μl/min/g"}, {"measurement": "PS", "setting": "[4]; Triple co-culture BBB model, PS worked out from mean Papp", "value": 101.05, "unit": "µL/min/g"}]}
